Reference: patent US8461165B2, “2-Substituted phenyl-5,7-dihydrocarbyl-3,7-dihydropyrrolo[2,3-d] pyrimidin-4-one derivatives, the preparation and the pharmaceutical use thereof” (Yangtze River Pharmaceutical (Group) Co., Ltd, priority 2003, dated 2013)
Counter-ions that a name gives are not always drawn.

Key:
male rabbit = test: penis erection experiment in conscious male rabbits; type: in vivo; details: for Length of rabbit penis: conscious rabbits, average of 3 rabbits
Experimental: (Bischoff E.; Schneider K, International Journal of Impotence Research, 2001, 13, 230 235)
The hydrochloride of 3,7-dihydropyrrolo[2,3-d]pyrimidin-4-one derivatives was dissolved into water, and injected to conscious-rabbits intravenously (i.v.) (0.1 mg-3 mg/kg). Erection was accessed by comparing the length of penis before and at 0, 30, 60, 90 and 120 minutes after intravenous administration of the above-mentioned agents.

mice = test: acute toxicity in mice; type: in vivo; details: single dose
Experimental: Furthermore, none of any obvious sign of adverse acute toxicity is shown for the compounds of this invention tested in rat and dog, both intravenously (i.v.) and orally (p.o.) at up to 3 mg/Kg, has shown. For the situation of mice, no deaths occurred after doses of up to 100 mg/Kg i.v. The LD50 for a single dose of compound I-HCl in mice is 2000 mg/kg.

male rats = test: effect of single administration on the coitus function of male rats; type: in vivo, rat; details: 24 mg/kg oral; for the latent period of straddle / the latent period of the coitus / times of straddle / times of the coitus: single administration, 20 min observation, average ± standard deviation
Experimental: After purchasing, the male rat and the estrogenized female rat were kept in the same cage for 2 days, and the male rat would acquire the sexual experiences. Then, the female rat was taken out of the cage, and the experiments began after the male rat stayed alone in a cage for 5 days. Each tested compound was orally administered in a dosage of 24 mg/kg, the positive group was administered with Sildenafil citrate (Viagra) in a dosage of 24 mg/kg, and the control group was administered with saline at the equal volume (0.1 ml/10 g). Fifty minutes after administration, the tested male rats were placed within a observation container (both the diameter and the height of the container were 24 cm), and the male rats adapted the new environment for 5 minutes. After that, two estrogenized female rats were placed into the container. The sexual behavior of the male rats in 20 minutes was observed under the non-interfering condition using Panasonic WVCP410/G monitor, the latent period of straddle, times of straddle, as well as the latent period of the coitus and times of the coitus. All the experiments were carried out at 21-24° C., and completed before 11:00 AM. The comparative results among the compounds of the invention, the blank and the positive control drug Sildenafil citrate were listed in Table 2.

[1] = molecular target: phosphodiesterase 5 (PDE5) (Homo sapiens, UniProt O76074); test: inhibition of phosphodiesterase 5 (SPA technique); type: biochemical
Experimental: The bioactivity inhibiting phosphodiesterase 5 (PDE5) of compounds of formula I was measured cross the reference of methods (Hidaka H, et al Biochim. Biochim. Biophys. Acta, 1976, 429, 485; Kim D-K, et al., Bioorg. Med. Chem. 2001, 9, 3013). The inhibiting activity of PDE5 was determined using SPA technique and the method of chemical fluorescence. The method was as follows: firstly, the reaction time curve and the enzyme concentration curve of PDE5 reaction system were determined by Microplate Scintillation & Luminescence Counter (TopCount Counter), by which the optimal reaction condition was determined. Under the optimized conditions, the inhibition experiments on PDE5 were carried out.

man = details: cited from earlier work
[2] = 0 min after i.v. administration (0.1 mg-3 mg/kg)
[3] = 30 min after i.v. administration (0.1 mg-3 mg/kg)
[4] = 60 min after i.v. administration (0.1 mg-3 mg/kg)
[5] = 90 min after i.v. administration (0.1 mg-3 mg/kg)
[6] = 120 min after i.v. administration (0.1 mg-3 mg/kg)

For `CCCn1cc(C)c2c(=O)[nH]c(-c3cc(S(=O)(=O)N4CCN(CC)CC4)ccc3OCC)nc21.Cl.Cl` [Compound 1-2HCl, 2-[2-ethoxyl-5-(4-ethylpiperazinyl-1-sulfonyl)phenyl]-5-methyl-7-n-propyl-3,7-dihydropyrrolo[2,3-d]pyrimidin-4-one dihydrochloride], the “Length of rabbit penis” value (male rabbit; [2]) was 1.3 mm, the “Length of rabbit penis” value (male rabbit; [3]) was 3.0 mm and the “Length of rabbit penis” value (male rabbit; [4]) was 2.0 mm. The “Length of rabbit penis” value (male rabbit; [5]) was 1.0 mm and the “Length of rabbit penis” value (male rabbit; [6]) was 1.0 mm.
With `CCCn1cc(C)c2c(=O)[nH]c(-c3cc(S(=O)(=O)N4CCN(CC)CC4)ccc3OCC)nc21.Cl` [Compound 1-HCl, 2-[2-ethoxyl-5-(4-ethylpiperazinyl-1-sulfonyl)phenyl]-5-methyl-7-n-propyl-3,7-dihydropyrrolo[2,3-d]pyrimidin-4-one monohydrochloride] the LD50 (mice) was 2000 mg/kg, the “effect on sexual function compared with Sildenafil citrate” value (male rats; both groups) was “stronger than that of the Sildenafil citrate group” and the “the latent period of straddle” value (male rats) was 2.6 ± 1.13 min. For the same compound, the “the latent period of the coitus” value (male rats) was 7.1 ± 5.62 min, the times of straddle (male rats) was 7.6 ± 2.70 and the “times of the coitus” value (male rats) was 13.1 ± 8.77. For the same compound, the “times of the coitus compared with positive control group” value (male rats; versus Sildenafil citrate, p<0.05) was “much more than that of the positive control group”, the “indexes of sexual function of the rats (in words)” value (male rats; versus saline) was “obviously enhanced” and the “latent period of coitus (in words)” value (male rats; versus saline) was “remarkably shortened”. The “latent period of straddle (in words)” value (male rats; versus saline) was “remarkably shortened”, the “times of the coitus (in words)” value (male rats; versus saline) was “obviously increased” and the “Length of rabbit penis” value (male rabbit; [2]) was 8.3 mm. For the same compound, the “Length of rabbit penis” value (male rabbit; [3]) was 5.7 mm, the “Length of rabbit penis” value (male rabbit; [4]) was 5.3 mm and the “Length of rabbit penis” value (male rabbit; [5]) was 2.0 mm. For the same compound, the “Length of rabbit penis” value (male rabbit; [6]) was 1.3 mm, the “potential in treatment of functional erectile dysfunction (in words)” value (male rabbit; rabbit penis erection, i.v.) was “quick onset and prolonged effectiveness” and the “inhibiting rate on PDE5” value ([1]; concentration 10^−8 mol/L) was 65.62%.
In the case of `CCCn1cc(C)c2c(=O)[nH]c(-c3cc(S(=O)(=O)N4CCN(C)CC4)ccc3OCC)nc21.Cl` [Compound 6-2HCl, 2-[2-ethoxyl-5-(4-methylpiperazinyl-1-sulfonyl)phenyl]-5-methyl-7-n-propyl-3,7-dihydropyrrolo[2,3-d]pyrimidin-4-one], the “Length of rabbit penis” value (male rabbit; [2]) is reported as 0.0 mm, the “Length of rabbit penis” value (male rabbit; [3]) is reported as 5.3 mm and the “Length of rabbit penis” value (male rabbit; [4]) is reported as 2.7 mm. For the same compound, the “Length of rabbit penis” value (male rabbit; [5]) was 1.7 mm and the “Length of rabbit penis” value (male rabbit; [6]) was 0.0 mm.
In the case of `CCCn1cc(C)c2c(=O)[nH]c(-c3cc(S(=O)(=O)N4CCN(C)CC4)ccc3OCC)nc21.Cl` [Compound 6-HCl, 2-[2-ethoxyl-5-(4-methylpiperazinyl-1-sulfonyl)phenyl]-5-methyl-7-n-propyl-3,7-dihydropyrrolo[2,3-d]pyrimidin-4-one], the “the latent period of straddle” value (male rats) is reported as 6.4 ± 3.07 min, the “the latent period of the coitus” value (male rats) is reported as 8.8 ± 5.85 min and the times of straddle (male rats) is reported as 8.0 ± 3.93. For the same compound, the “times of the coitus” value (male rats) was 9.0 ± 8.50, the “latent period of coitus compared with positive control group” value (male rats; versus Sildenafil citrate) was “remarkably shorter than that of the positive control group” and the “indexes of sexual function of the rats (in words)” value (male rats; versus saline) was “obviously enhanced”.
With `CCCn1cc(C)c2c(=O)[nH]c(-c3cc(S(=O)(=O)N4CCN(C(=O)OCC)CC4)ccc3OCC)nc21.Cl.Cl` [Compound 8-2HCl, 2-[2-ethoxyl-5-(4-ethoxylcarbonylpiperazinyl-1-sulfonyl)phenyl]-5-methyl-7-n-propyl-3,7-dihydropyrrolo[2,3-d]pyrimidin-4-one] the “Length of rabbit penis” value (male rabbit; [2]) was 2.7 mm, the “Length of rabbit penis” value (male rabbit; [3]) was 1.7 mm and the “Length of rabbit penis” value (male rabbit; [4]) was 1.3 mm. For the same compound, the “Length of rabbit penis” value (male rabbit; [5]) was 0.7 mm and the “Length of rabbit penis” value (male rabbit; [6]) was 0.0 mm.
For `CCCn1cc(C)c2c(=O)[nH]c(-c3cc(S(=O)(=O)N4CCN(Cc5ccccc5)CC4)ccc3OCC)nc21.Cl.Cl` [Compound 19-2HCl, 2-[2-ethoxyl-5-(4-benzylpiperazinyl-1-sulfonyl)phenyl]-5-methyl-7-n-propyl-3,7-dihydropyrrolo[2,3-d]pyrimidin-4-one], the “Length of rabbit penis” value (male rabbit; [2]) was 1.7 mm, the “Length of rabbit penis” value (male rabbit; [3]) was 4.0 mm and the “Length of rabbit penis” value (male rabbit; [4]) was 4.3 mm. The “Length of rabbit penis” value (male rabbit; [5]) was 4.0 mm and the “Length of rabbit penis” value (male rabbit; [6]) was 0.0 mm.
In the case of `CCCc1nn(C)c2c(=O)[nH]c(-c3cc(S(=O)(=O)N4CCN(C)CC4)ccc3OCC)nc12` [Sildenafil citrate, reference compound], the “the latent period of straddle” value (male rats) is reported as 5.0 ± 4.74 min, the “the latent period of the coitus” value (male rats) is reported as 8.2 ± 4.02 min and the times of straddle (male rats) is reported as 12.7 ± 7.18. The “times of the coitus” value (male rats) was 8.2 ± 5.25.
For `CCCc1nn(C)c2c(=O)[nH]c(-c3cc(S(=O)(=O)N4CCN(C)CC4)ccc3OCC)nc12` [sildenafil, reference compound], the “effective rates in treating male sexual organs erectile dysfunction” value (man) is listed as 80% and the inhibition at 0.01 µM ([1]; read-out: inhibiting rate on PDE5) is listed as 31.7%.
